This assay has as its target T1, Dihydroorotase (Escherichia coli (strain K12), UniProt P05020).
T1 sequence (P05020 whole entry): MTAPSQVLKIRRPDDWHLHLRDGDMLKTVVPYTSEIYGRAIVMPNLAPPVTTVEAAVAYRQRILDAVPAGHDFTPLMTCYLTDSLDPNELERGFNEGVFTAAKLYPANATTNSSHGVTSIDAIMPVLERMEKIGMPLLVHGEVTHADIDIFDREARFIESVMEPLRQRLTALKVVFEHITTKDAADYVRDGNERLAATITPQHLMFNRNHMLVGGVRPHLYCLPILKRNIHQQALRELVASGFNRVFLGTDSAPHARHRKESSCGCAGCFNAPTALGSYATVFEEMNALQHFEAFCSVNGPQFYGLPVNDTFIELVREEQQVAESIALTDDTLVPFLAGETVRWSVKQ
Put plainly: Inhibition Assay. The settings on record: pH 7. The source says:
The DHO-catalyzed hydrolysis of dihydrooroate was monitored spectrophotoetrically at 230 and 280 nm using a SPECTRAmax (Molecular Device) plate reader.

The Ki is the dissociation constant of the complex between target and ligand, obtained from inhibition or displacement. Turning to `O=C1CC(=O)N[C@H](C(=O)O)C1` [4,6-dioxo-piperidine-2-carboxylic acid, 3], affinity was put at a Ki of 76 mM.

The values are drawn from BindingDB's records for doi:10.1016/j.bioorg.2005.08.001 (Texas A&M University, 2005).
